# From PMC4628094, “In Vitro Assessment of Uptake and Lysosomal Sequestration of Respiratory Drugs in Alveolar Macrophage Cell Line NR8383” (Pharmaceutical Research, 2015)
# Read-outs that look alike come from different tables or passages of the source. Marks after values point to notes of the source that are not given here.
# How the values were obtained:
# NR8383 cells [1] = assay: LysoTracker Red (LTR) confocal assessment of lysosomal sequestration in NR8383; type: cell-based, rat; settings: NH4Cl 20 mM, monensin 5 μM, nigericin 10 μM with 200 nM LTR
# [2] = test system: Lung tissue slices from male Wistar rats; design: method as in ref (8) (a number printed in a supplementary file, which may have a reference list of its own: not looked up in the article's list); settings: drug 5 µM, 60 min, ref (8), cited from earlier work; for Reduction in total uptake (%): NH4Cl 20 mM
# [3] = test system: Liver tissue slices from male Wistar rats; design: method as in ref (8) (a number printed in a supplementary file, which may have a reference list of its own: not looked up in the article's list); settings: drug 5 µM, 60 min, ref (8), cited from earlier work; for Reduction in total uptake (%): NH4Cl 20 mM
# [4] = test system: Brain slices from male Wistar rats; design: method as in ref (10) (a number printed in a supplementary file, which may have a reference list of its own: not looked up in the article's list); settings: drug 5 µM, 60 min, ref (10), cited from earlier work; for Reduction in total uptake (%): NH4Cl 20 mM; for Reduction of total uptake (%): monensin 10 µM
# [5] = test system: Lung granule fraction containing lysosomes from male Wistar rats; design: method as in ref (6) (a number printed in a supplementary file, which may have a reference list of its own: not looked up in the article's list); settings: NH4Cl 10 mM, drug 1 µM, 10 min; ref (6); cited from earlier work
# [6] = Physicochemical properties, experimental literature values (Table I); settings: classification in Table I
# [7] = cited from earlier work
# [8] = Drug uptake in NR8383 at 37 and 4°C (CLuptake, CLdiff, Kp); settings: rat
# Protocol: (§1) The studies were carried out in a 24-well plate format and the in vitro conditions were optimised in terms of cell detachment method from culture flasks, coating type of 24-well plates, seeding density, culturing time and drug incubation time points. Briefly, for cell detachment, gentle scraping versus Mg^2+-Ca^2+ free DPBS treatment of cells in culture flasks were tested. Considering the semi-adherent nature of AMs, cell seeding into non-coated, collagen-I and poly-D-lysine coated 24-well plates was investigated for cell attachment, distribution in the wells and detachment following DPBS washes during the uptake experiments. In addition, seeding densities of 0.36 and 0.72 × 10^6 cells per well were assessed with respect to cell attachment, confluency following culture (plating efficiency) and potential cell detachment following DPBS washes. Culturing time ranging from 4 to 24 h was investigated for optimal cell attachment before carrying out uptake experiments. Uptake rate and Kp data were normalised by cell number determined indirectly by measuring the amount of protein in samples by bicinchoninic acid (BCA) protein assay (Thermo Scientific, Loughborough, UK). Following the optimisation, detachment of NR8383 from cell culture flasks was performed by gentle scraping prior to cell counting and seeding into collagen-I coated 24-well plates at 0.5 × 10^6 cells per well. Cells were cultured for 16 h at 37°C, 5% CO2 (CO2 incubator, MCO-17AIC, Sanyo Biomedical, Loughborough, UK) before uptake studies performed over 1 to 10 min period.
# (§2) The drug uptake in NR8383 corresponding to these conditions was described by total uptake (CLuptake) and passive diffusion (CLdiff) clearance terms, respectively. […] Substrate solutions were prepared by dilution of the stock solutions in DPBS resulting in final DMSO content < 1%. Uptake studies were performed in the presence of 1 mM ABT, a nonspecific P450 inhibitor, in order to avoid any potential impact of phase I metabolism. […] Following microscopy, the CGM was removed, cells were washed twice with 800 μL of either pre-warmed or ice-cold DPBS (for experiments at 37 and 4°C, respectively) and pre-incubation with 500 μL of pre-warmed or ice-cold ABT/DPBS was carried out for 20 min. Where ABT pre-treatment was not necessary, cell monolayers were treated with 500 μL of DPBS only. Once pre-incubation buffer was removed from the cell monolayers, incubations were started by addition of 400 μL of substrate solution (pre-warmed or ice-cold) in each well. Each substrate was incubated with the cells for 1, 2, 5 and 10 min and each time point at 37°C and 4°C. For 37°C experiments, incubation was carried out on a dry heater block maintained at 37°C throughout the experiment (Tecam Dri-block DB-3, Tecam, Princeton, NJ) and for 4°C experiments, the procedure was carried out on ice. Incubation with substrate was stopped by removal of the media with drug solution and washing the monolayers three times with 800 μL ice-cold DPBS. The back-diffusion of the drug from the cell into the medium was considered to be negligible under these conditions. The removed incubation media were retained for the measurement of drug medium concentrations and subsequent determination of Kp for each drug. The cells were lysed by addition of 200 μL ice-cold deionised water; cell lysates were kept at −20°C overnight and then processed further for LC-MS/MS analysis. Experiments were performed on three or more separate occasions for each drug investigated. […] The amount of protein per well was measured using a BSA calibration curve and absorbances read at 562 nm (S22 Boeco UV-Visible Spectrophotometer, Hamburg, Germany).
# NR8383 cells [9] = assay: as above; settings: NR8383, 5 μM; for Contribution of passive (%): CLdiff relative to CLuptake
# Protocol: as §1, §2
# [10] = Lysosomal sequestration studies in NR8383 with NH4Cl, monensin and nigericin; settings: rat; for Kp at 10 min, 5 μM: NR8383, 5 μM drug; for Kp at 10 min, 20 µM: NR8383, 20 µM drug
# Protocol: (§3) The extent of accumulation of drugs in lysosomes was assessed using the same uptake methodology, as described above in the absence and presence of NH4Cl and ionophores, monensin and nigericin. […] In addition, a range of incubation conditions was explored, including pre-incubation and co-incubation alone and combined together. Once the conditions were optimised, further experiments were performed with 20 mM NH4Cl co-incubated with investigated drugs. […] For incubations with monensin and nigericin, all drugs were prepared at 5 μM concentration and the incubations were carried out for 5 min (single time point). Following the treatment of the cell monolayers with drug alone or drug with the agents mentioned, incubations were stopped by washing of the cells with ice-cold DPBS as described above, followed by cell lysis in deionised water. All incubations were carried out in duplicate and experiments were performed for three separate occasions. The removed incubation media were retained for the measurement of drug concentrations and subsequent determination of Kp for each compound. Analysis of samples in LC-MS/MS was performed after cells were kept at −20°C overnight.
# (§4) Kp and CLuptake were determined as described above for each drug both under control condition and in the presence of a chemical agent affecting the pH gradient between cytosol and lysosomes. The reduction in Kp and CLuptake of each drug in the presence of the chemical agents was expressed as a percentage relative to control and used as an indicator of the extent of lysosomal sequestration. A 50% reduction in both parameters was set as a cut-off for lysosomal accumulation, while also taking into account the physicochemical properties of the compounds (Table I) and the uncertainty associated with the experimental data.
# (§5) The in vitro parameters were calculated on at least three separate occasions and the mean data were reported. When assessing the extent of lysosomal sequestration, the control and chemical agent treated cells were compared using the two-tailed, paired t-test in order to determine statistically significant difference between the two conditions. Values were reported as significant when p < 0.05.
# NR8383 cells [11] = assay: as above; settings: for % Reduction in Kp by NH4Cl: NH4Cl 20 mM; for reduction in Kp in the presence of chemical agents (summary in Discussion): NR8383, NH4Cl, monensin, nigericin
# Protocol: as §3, §4, §5
# [12] = test system: Lung tissue slices from male Wistar rats; design: method as in ref (5) (a number printed in a supplementary file, which may have a reference list of its own: not looked up in the article's list); settings: NH4Cl 20 mM, drug 5 µM, 60 min, ref (5); cited from earlier work
# [13] = test system: Lung tissue slices from male Wistar rats; design: method as in ref (9) (a number printed in a supplementary file, which may have a reference list of its own: not looked up in the article's list); settings: drug 5 µM, 60 min, ref (9), cited from earlier work; for Reduction in total uptake (%): NH4Cl 20 mM
# [14] = test system: Liver tissue slices from male Wistar rats; design: method as in ref (9) (a number printed in a supplementary file, which may have a reference list of its own: not looked up in the article's list); settings: drug 5 µM, 60 min, ref (9), cited from earlier work; for Reduction in total uptake (%): NH4Cl 20 mM
# [15] = test system: Lung tissue slices from male Wistar rats; design: method as in ref (14) (a number printed in a supplementary file, which may have a reference list of its own: not looked up in the article's list); settings: monensin 10 µM, drug 5 µM, 60 min, ref (14); cited from earlier work
# [16] = test system: Liver tissue slices from male Wistar rats; design: method as in ref (14) (a number printed in a supplementary file, which may have a reference list of its own: not looked up in the article's list); settings: monensin 10 µM, drug 5 µM, 60 min, ref (14); cited from earlier work
# [17] = test system: NR8383 cell line and granule fraction (containing lysosomes); settings: NH4Cl 10 mM, drug 50 µM, ref (12), cited from earlier work
# [18] = test system: Lung tissue slices from male Sprague-Dawley rats; settings: monensin 10 µM, desipramine, diazepam 5 µM, chloroquine, thiopental 10 µM, 60 min, ref (3); cited from earlier work
# [19] = experimental value, ref ([21])-([30]) per drug, Table I
# [20] = NR8383 cells, Kp (cell-to-medium concentration ratio), NR8383, 5 μM, 37°C, 10 min
# [21] = NR8383 cells, Kp + NH4Cl, 20 mM NH4Cl co-incubated, 10 min
# [22] = NR8383 cells, Kp + NH4Cl, 20 mM NH4Cl
# [23] = NR8383 cells, Kp Control, control
smiles,measurement,setting,value
"Cl.N [NH4Cl, ammonium chloride]",reduced LTR fluorescent signal,NR8383 cells [1],up to 85%
CSc1ccc2c(c1)N(CCC1CCCCN1C)c1ccccc1S2 (stereo not shown) [Thioridazine],Reduction in total uptake (%),[2],41%
same,Reduction of total uptake (%),[2]; monensin 10 µM,35%
same,Reduction in total uptake (%),[3],75%
same,Reduction of total uptake (%),[3]; monensin 10 µM,82%
same,Reduction in total uptake (%),[4],62%
same,Reduction of total uptake (%),[4],58%
CN(C)CCCN1c2ccccc2Sc2ccc(Cl)cc21 [Chlorpromazine],Reduction in total uptake (%),[5],8%
CC(C)(C)NCC(O)c1cc(O)cc(O)c1 (stereo not shown) [Terbutaline],Acid–base Property,[6],Base
same,LogD7.4,"[7]; Average value of two studies, ref ([27],[28])",−1.50 ^b
same,pKa_a (acidic pKa),[7]; [19],8.60
same,pKa_b (basic pKa),[7]; [19],9.90
same,hepatocyte CLint at 5 μM,[8]; NR8383 cells,< 1 µL/min/1e6 cells
same,"Kp at 10 min, 5 μM",[8]; [20],~1
same,Kp (cell-to-medium concentration ratio),"NR8383 cells [9]; 37°C, 10 min",0.69 ± 0.16
same,Contribution of passive (%),NR8383 cells [9],47.6%
same,"Kp at 10 min, 5 μM",[10]; [21],0.72 ± 0.31
same,"Kp at 10 min, 20 µM",[10]; [22],0.56 ± 0.29
same,"Kp at 10 min, 5 μM",[10]; [23],0.92 ± 0.39
same,"Kp at 10 min, 20 µM",[10]; [23],0.79 ± 0.46
same,% Reduction in Kp by NH4Cl,"NR8383 cells [11]; NR8383, 5 μM drug",21 ± 5.0%
same,% Reduction in Kp by NH4Cl,"NR8383 cells [11]; NR8383, 20 µM drug",22^ a %
same,% Reduction in CLuptake by NH4Cl (20 mM),"NR8383 cells [11]; NR8383, at 5 µM drug",15 ± 15%
same,% Reduction in CLuptake by NH4Cl (20 mM),"NR8383 cells [11]; NR8383, at 20 µM drug",36 ± 23%
same,reduction in Kp in the presence of chemical agents (summary in Discussion),NR8383 cells [11],20–40%
C[N+]1(C)[C@@H]2C[C@@H](OC(=O)C(O)(c3cccs3)c3cccs3)C[C@H]1[C@@H]1O[C@@H]12 [Tiotropium bromide],Acid–base Property,[6],Permanently cationic
same,"Kp at 10 min, 5 μM",[8]; [20],8.74 ± 7.24
same,Contribution of passive (%),NR8383 cells [9],16.3%
same,"Kp at 10 min, 5 μM",[10]; [21],3.87 ± 2.61
same,"Kp at 10 min, 20 µM",[10]; [22],2 ± 0.64
same,"Kp at 10 min, 5 μM",[10]; [23],4.39 ± 2.9
same,"Kp at 10 min, 20 µM",[10]; [23],2.4 ± 1
same,% Reduction in Kp by NH4Cl,"NR8383 cells [11]; NR8383, 5 μM drug",12 ± 1.8%
same,% Reduction in Kp by NH4Cl,"NR8383 cells [11]; NR8383, 20 µM drug",35 ± 26%
same,% Reduction in CLuptake by NH4Cl (20 mM),"NR8383 cells [11]; NR8383, at 5 µM drug",15 ^a %
same,% Reduction in CLuptake by NH4Cl (20 mM),"NR8383 cells [11]; NR8383, at 20 µM drug",28 ^a %
same,reduction in Kp in the presence of chemical agents (summary in Discussion),NR8383 cells [11],< 15%
CO[C@H]1/C=C/O[C@@]2(C)Oc3c(C)c(O)c4c(O)c(c(/C=N/N5CCN(C)CC5)c(O)c4c3C2=O)NC(=O)/C(C)=C\C=C\[C@H](C)[C@H](O)[C@@H](C)[C@@H](O)[C@@H](C)[C@H](OC(C)=O)[C@@H]1C [Rifampicin],Acid–base Property,[6],Zwitterion
same,LogD7.4,[7]; [19],0.3
same,pKa_b (basic pKa),[7]; [19],6.70
CC(C)=CCN1CCC2(C)c3cc(O)ccc3CC1C2C (stereo not shown) [Pentazocine],Reduction in total uptake (%),[5],77%
CC(Cc1ccc(O)cc1)NCC(O)c1cc(O)cc(O)c1 (stereo not shown) [Fenoterol],Acid–base Property,[6],Base
same,LogD7.4,[7]; [19],0.74
same,"Kp at 10 min, 5 μM",[8],5.69 ± 0.98
same,hepatocyte CLint at 5 μM,[8]; other cell line,< 1 µL/min/1e6 cells
same,Contribution of passive (%),NR8383 cells [9],8.03%
same,"Kp at 10 min, 5 μM","[10]; Kp + NH4Cl, 20 mM NH4Cl co-incubated, 10 min",2.91 ± 2.11
same,"Kp at 10 min, 20 µM","[10]; Kp + NH4Cl, 20 mM NH4Cl",0.96 ± 0.33
same,"Kp at 10 min, 5 μM","[10]; Kp Control, control",4.25 ± 2.64
same,"Kp at 10 min, 20 µM","[10]; Kp Control, control",1.5 ± 0.93
same,% Reduction in Kp by NH4Cl,"NR8383 cells [11]; NR8383, 5 μM drug",31 ± 23%
same,% Reduction in Kp by Monensin,"NR8383 cells [11]; NR8383, 5 μM drug, monensin 5 μM, 5 min",27 ± 25%
same,% Reduction in Kp by Nigericin,"NR8383 cells [11]; NR8383, 5 μM drug, nigericin 10 μM, 5 min",30 ± 12%
same,% Reduction in Kp by NH4Cl,"NR8383 cells [11]; NR8383, 20 µM drug",27 ± 24%
same,% Reduction in CLuptake by Monensin (5 µM),"NR8383 cells [11]; NR8383, at 5 µM drug",29 ± 21%
same,% Reduction in CLuptake by NH4Cl (20 mM),"NR8383 cells [11]; NR8383, at 5 µM drug",36 ± 12%
same,% Reduction in CLuptake by Nigericin (10 µM),"NR8383 cells [11]; NR8383, at 5 µM drug",25 ± 15%
same,% Reduction in CLuptake by NH4Cl (20 mM),"NR8383 cells [11]; NR8383, at 20 µM drug",22 ± 28%
same,reduction in Kp in the presence of chemical agents (summary in Discussion),NR8383 cells [11],20–40%
CN[C@H]1CC[C@@H](c2ccc(Cl)c(Cl)c2)c2ccccc21 [Sertraline],Reduction in total uptake (%),[12],42%
same,Reduction in total uptake (%),[2],40%
same,Reduction in total uptake (%),[3],42%
same,Reduction in total uptake (%),[13],45%
same,Reduction in total uptake (%),[14],29%
same,Reduction of total uptake (%),[15],50%
same,Reduction of total uptake (%),[16],19%
CC[C@H]1OC(=O)[C@H](C)[C@@H](O[C@H]2C[C@@](C)(OC)[C@@H](O)[C@H](C)O2)[C@H](C)[C@@H](O[C@@H]2O[C@H](C)C[C@H](N(C)C)[C@H]2O)[C@](C)(O)C[C@@H](C)CN(C)[C@H](C)[C@@H](O)[C@]1(C)O [Azithromycin],Reduction in total uptake (%),"[17]; Granule, after subcellular fractionation, 30 min",72%
same,Reduction in total uptake (%),"[17]; before subcellular fractionation, azithromycin 120 min, clarithromycin 60 min",97%
CNCCC(Oc1ccc(C(F)(F)F)cc1)c1ccccc1 (stereo not shown) [Fluoxetine],Reduction in total uptake (%),[12],21%
same,Reduction in total uptake (%),[2],41%
same,Reduction in total uptake (%),[13],39%
same,Reduction of total uptake (%),[15],23%
CCCC1O[C@@H]2C[C@H]3[C@@H]4CCC5=CC(=O)C=C[C@]5(C)[C@H]4[C@@H](O)C[C@]3(C)[C@]2(C(=O)CO)O1 (stereo partly shown) [Budesonide],Acid–base Property,[6],Neutral
same,"Kp at 10 min, 5 μM",[8]; [20],37.6 ± 11.4
same,Contribution of passive (%),NR8383 cells [9],97.2%
same,"Kp at 10 min, 5 μM",[10]; [21],28.1 ± 7.12
same,"Kp at 10 min, 20 µM",[10]; [22],31 ± 12
same,"Kp at 10 min, 5 μM",[10]; [23],31.5 ± 8.46
same,"Kp at 10 min, 20 µM",[10]; [23],34 ± 12.5
same,% Reduction in Kp by NH4Cl,"NR8383 cells [11]; NR8383, 5 μM drug",10 ± 7.8%
same,% Reduction in Kp by NH4Cl,"NR8383 cells [11]; NR8383, 20 µM drug",6.6 ± 4.1%
same,% Reduction in CLuptake by NH4Cl (20 mM),"NR8383 cells [11]; NR8383, at 5 µM drug",18 ± 15%
same,reduction in Kp in the presence of chemical agents (summary in Discussion),NR8383 cells [11],< 15%
CC(CN1c2ccccc2Sc2ccccc21)N(C)C (stereo not shown) [Promethazine],Reduction in total uptake (%),[5],17%
CN1CCN(CCCN2c3ccccc3Sc3ccccc32)CC1 [Perazine],Reduction in total uptake (%),[13],58%
same,Reduction of total uptake (%),[13]; monensin 10 µM,71.6%
same,Reduction in total uptake (%),[14],61%
same,Reduction of total uptake (%),[14]; monensin 10 µM,65%
same,Reduction in total uptake (%),[4],55%
same,Reduction of total uptake (%),[4],55%
CCCC(C)C1(CC)C(=O)NC(=S)NC1=O (stereo not shown) [Thiopental],Reduction of total uptake (%),[18],10%
